“And” between values parts separate entries of the source, which are not always exact repeats. Equal entries are not always repeated. Toxic doses and inconclusive results are not listed. Rule as the data show it: active = T/C of 150% or more; inactive = T/C below 125%.
Tested on: L1210 leukemia ip in BDF1 mice, survival T/C
Test: NCI In Vivo Anticancer Drug Screen. Data for tumor model L1210 Leukemia (intraperitoneal) in B6D2F1 (BDF1) mice
Details: endpoint: mean survival time, higher = longer survival
In short: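 Read-out is survival time, reported as the treated-group measurement over the vehicle-control measurement.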

[1] = dose: 100.0 mg/kg/injection, schedule: Q01DX001 (ip), vehicle: carboxymethylcellulose (CMC)
[2] = dose: 200.0 mg/kg/injection, schedule: Q01DX001 (ip), vehicle: carboxymethylcellulose (CMC)
[3] = dose: 400.0 mg/kg/injection, schedule: Q01DX001 (ip), vehicle: carboxymethylcellulose (CMC)
[4] = dose: 100.0 mg/kg/injection, schedule: Q01DX009 (ip), vehicle: saline with Tween-80
[5] = dose: 200.0 mg/kg/injection, schedule: Q01DX009 (ip), vehicle: saline with Tween-80
[6] = dose: 100.0 mg/kg/injection, schedule: Q01DX001 (ip), vehicle: saline
[7] = dose: 200.0 mg/kg/injection, schedule: Q01DX001 (ip), vehicle: saline
[8] = dose: 400.0 mg/kg/injection, schedule: Q01DX001 (ip), vehicle: saline
[9] = dose: 100.0 mg/kg/injection, schedule: Q01DX001 (ip), vehicle: other
[10] = dose: 200.0 mg/kg/injection, schedule: Q01DX001 (ip), vehicle: other
[11] = dose: 400.0 mg/kg/injection, schedule: Q01DX001 (ip), vehicle: other

Measured: T/C

N#CCCN(C(=O)Nc1cccc(C(F)(F)F)c1)C1CCCCC1
inactive: [1] 100 % of control and 103 % of control | dose: 100.0 mg/kg/injection, schedule: Q01DX009 (ip), vehicle: carboxymethylcellulose (CMC) 90 % of control | dose: 100.0 mg/kg/injection, schedule: Q04DX002 (ip), vehicle: carboxymethylcellulose (CMC) 93 % of control and 89 % of control | dose: 100.0 mg/kg/injection, schedule: Q04DX003 (ip), vehicle: carboxymethylcellulose (CMC) 100 % of control and 103 % of control | [2] 96 % of control and 100 % of control | dose: 200.0 mg/kg/injection, schedule: Q01DX009 (ip), vehicle: carboxymethylcellulose (CMC) 90 % of control | dose: 200.0 mg/kg/injection, schedule: Q04DX002 (ip), vehicle: carboxymethylcellulose (CMC) 93 % of control | dose: 200.0 mg/kg/injection, schedule: Q04DX003 (ip), vehicle: carboxymethylcellulose (CMC) 93 % of control | [3] 92 % of control and 102 % of control | dose: 400.0 mg/kg/injection, schedule: Q04DX002 (ip), vehicle: carboxymethylcellulose (CMC) 86 % of control | dose: 400.0 mg/kg/injection, schedule: Q04DX003 (ip), vehicle: carboxymethylcellulose (CMC) 95 % of control

Clc1cc(Cl)c(C[N+]23CN4CN(CN(C4)C2)C3)cc1Cl
inactive: dose: 12.5 mg/kg/injection, schedule: Q01DX009 (ip), vehicle: saline with Tween-80 102 % of control | dose: 25.0 mg/kg/injection, schedule: Q01DX009 (ip), vehicle: saline with Tween-80 104 % of control | dose: 50.0 mg/kg/injection, schedule: Q01DX009 (ip), vehicle: saline with Tween-80 102 % of control | [4] 120 % of control | [5] 121 % of control

CO/C(=C(/C)C(=O)O)c1c(C)cc(C)c(Br)c1C
inactive: dose: 75.0 mg/kg/injection, schedule: Q01DX009 (ip), vehicle: Klucel (hydroxypropylcellulose) (HPC) 98 % of control | dose: 150.0 mg/kg/injection, schedule: Q01DX009 (ip), vehicle: Klucel (hydroxypropylcellulose) (HPC) 95 % of control | dose: 300.0 mg/kg/injection, schedule: Q01DX009 (ip), vehicle: Klucel (hydroxypropylcellulose) (HPC) 109 % of control

CNC(=O)C(c1ccccc1)C(O)(c1ccccc1)c1ccccc1 (stereo not drawn)
inactive: dose: 50.0 mg/kg/injection, schedule: Q01DX001 (ip), vehicle: saline 96 % of control | [6] 93 % of control | [7] 98 % of control | [8] 87 % of control

COc1ccccc1-n1c(=O)c(N=Nc2ccc(Br)cc2)c(O)n(-c2ccccc2Cl)c1=S
inactive: dose: 37.5 mg/kg/injection, schedule: Q01DX001 (ip), vehicle: Klucel (hydroxypropylcellulose) (HPC) 107 % of control | dose: 75.0 mg/kg/injection, schedule: Q01DX001 (ip), vehicle: Klucel (hydroxypropylcellulose) (HPC) 116 % of control | dose: 150.0 mg/kg/injection, schedule: Q01DX001 (ip), vehicle: Klucel (hydroxypropylcellulose) (HPC) 98 % of control

Cc1ccc(S(=O)(=O)N2CC(=O)CCc3ccc(Cl)cc32)cc1
inactive: dose: 75.0 mg/kg/injection, schedule: Q01DX009 (ip), vehicle: other 100 % of control | dose: 150.0 mg/kg/injection, schedule: Q01DX009 (ip), vehicle: other 100 % of control | dose: 300.0 mg/kg/injection, schedule: Q01DX009 (ip), vehicle: other 100 % of control

N#CSCC(CCCCCCCCC(=O)O)SC#N (stereo not drawn)
inactive: dose: 12.5 mg/kg/injection, schedule: Q04DX002 (ip), vehicle: saline with Tween-80 91 % of control | dose: 25.0 mg/kg/injection, schedule: Q04DX002 (ip), vehicle: saline with Tween-80 100 % of control

C1=NCCCN2CCCCC12 (stereo not drawn)
inactive: dose: 2.35 mg/kg/injection, schedule: Q01DX009 (ip), vehicle: Klucel (hydroxypropylcellulose) (HPC) 92 % of control | dose: 4.69 mg/kg/injection, schedule: Q01DX009 (ip), vehicle: Klucel (hydroxypropylcellulose) (HPC) 92 % of control | dose: 9.38 mg/kg/injection, schedule: Q01DX009 (ip), vehicle: Klucel (hydroxypropylcellulose) (HPC) 97 % of control | dose: 18.75 mg/kg/injection, schedule: Q01DX009 (ip), vehicle: Klucel (hydroxypropylcellulose) (HPC) 106 % of control

FC(F)(F)/C([S-])=C(/[S-])C(F)(F)F.FC(F)(F)/C([S-])=C(/[S-])C(F)(F)F.FC(F)(F)/C([S-])=C(/[S-])C(F)(F)F.FC(F)(F)/C([S-])=C(/[S-])C(F)(F)F.[Co+3].[Co+3]
inactive: dose: 12.5 mg/kg/injection, schedule: Q01DX009 (ip), vehicle: other 113 % of control | dose: 25.0 mg/kg/injection, schedule: Q01DX009 (ip), vehicle: other 104 % of control

O=C(NCCCCCCNC(=O)N(O)C12CC3CC(CC(C3)C1)C2)N(O)C12CC3CC(CC(C3)C1)C2
inactive: dose: 100.0 mg/kg/injection, schedule: Q01DX001 (ip), vehicle: Klucel (hydroxypropylcellulose) (HPC) 95 % of control | dose: 200.0 mg/kg/injection, schedule: Q01DX001 (ip), vehicle: Klucel (hydroxypropylcellulose) (HPC) 90 % of control | dose: 400.0 mg/kg/injection, schedule: Q01DX001 (ip), vehicle: Klucel (hydroxypropylcellulose) (HPC) 90 % of control

CCCCCSP(=S)(SCCCCC)c1ccccc1
inactive: dose: 100.0 mg/kg/injection, schedule: Q04DX002 (ip), vehicle: saline with Tween-80 99 % of control | dose: 200.0 mg/kg/injection, schedule: Q04DX002 (ip), vehicle: saline with Tween-80 105 % of control | dose: 400.0 mg/kg/injection, schedule: Q04DX002 (ip), vehicle: saline with Tween-80 99 % of control

COc1cc2c(cc1OCc1ccccc1)C(C#N)N(C(=O)c1ccccc1)C=C2 (stereo not drawn)
inactive: dose: 25.0 mg/kg/injection, schedule: Q01DX009 (ip), vehicle: saline 98 % of control | dose: 50.0 mg/kg/injection, schedule: Q01DX009 (ip), vehicle: saline 100 % of control | dose: 100.0 mg/kg/injection, schedule: Q01DX009 (ip), vehicle: saline 93 % of control | dose: 200.0 mg/kg/injection, schedule: Q01DX009 (ip), vehicle: saline 86 % of control

O=C1OC(=O)C2C3CCCCC3=C3CCCCC3C12 (stereo not drawn)
inactive: dose: 100.0 mg/kg/injection, schedule: Q04DX002 (ip), vehicle: Klucel (hydroxypropylcellulose) (HPC) 96 % of control | dose: 100.0 mg/kg/injection, schedule: Q04DX003 (ip), vehicle: Klucel (hydroxypropylcellulose) (HPC) 101 % of control | dose: 200.0 mg/kg/injection, schedule: Q04DX002 (ip), vehicle: Klucel (hydroxypropylcellulose) (HPC) 101 % of control | dose: 200.0 mg/kg/injection, schedule: Q04DX003 (ip), vehicle: Klucel (hydroxypropylcellulose) (HPC) 105 % of control | dose: 400.0 mg/kg/injection, schedule: Q04DX002 (ip), vehicle: Klucel (hydroxypropylcellulose) (HPC) 93 % of control | dose: 400.0 mg/kg/injection, schedule: Q04DX003 (ip), vehicle: Klucel (hydroxypropylcellulose) (HPC) 103 % of control

Cc1cc(=O)oc2c1ccc1c(O)cccc12
inactive: [1] 103 % of control | [2] 97 % of control | [3] 94 % of control

C=C1CC(C)(C)C(c2ccccc2)OC1=O (stereo not drawn)
inactive: dose: 100.0 mg/kg/injection, schedule: Q01DX001 (ip), vehicle: saline with Tween-80 107 % of control | dose: 200.0 mg/kg/injection, schedule: Q01DX001 (ip), vehicle: saline with Tween-80 102 % of control

C[N+](C)(CCCN1C(=O)c2cccc3c(Br)ccc(c23)C1=O)Cc1ccc(Cl)c(Cl)c1
inactive: [9] 98 % of control | [10] 96 % of control | [11] 93 % of control

Cc1c2c([nH]c(=O)c1C)C=CC(Br)C2Br (stereo not drawn)
inactive: [9] 93 % of control | [10] 101 % of control | [11] 98 % of control

COc1ccccc1/C1=C/CCCCCC1
inactive: dose: 50.0 mg/kg/injection, schedule: Q01DX009 (ip), vehicle: acetone 90 % of control | dose: 100.0 mg/kg/injection, schedule: Q01DX009 (ip), vehicle: acetone 88 % of control | dose: 100.0 mg/kg/injection, schedule: Q04DX003 (ip), vehicle: acetone 100 % of control | dose: 200.0 mg/kg/injection, schedule: Q01DX009 (ip), vehicle: acetone 87 % of control | dose: 200.0 mg/kg/injection, schedule: Q04DX003 (ip), vehicle: acetone 92 % of control | dose: 400.0 mg/kg/injection, schedule: Q04DX003 (ip), vehicle: acetone 89 % of control

CCCn1c(C)nc2c1C(=O)c1ccccc1C2=O
inactive: [6] 94 % of control | dose: 100.0 mg/kg/injection, schedule: Q04DX003 (ip), vehicle: saline 86 % of control | [7] 98 % of control | dose: 200.0 mg/kg/injection, schedule: Q04DX003 (ip), vehicle: saline 88 % of control | [8] 103 % of control | dose: 400.0 mg/kg/injection, schedule: Q04DX003 (ip), vehicle: saline 91 % of control

O=C(CCCCl)Oc1ccccc1
inactive: [4] 103 % of control | [5] 98 % of control
